Laboratory results: patent publication US20160053316A1, “Systems and Methods for Determining a C-Peptide Receptor, C-Peptide Receptor, and Methods of Using Same” (Saint Louis University, priority 2012, published 2016)

How the values were obtained:
HEK293 cells = assay: C-peptide-induced cFos mRNA expression (RT-PCR) in HEK293 cells; type: cell-based, human; details: treatment with C-peptide (FIG. 3)
Protocol: (§1) In utilizing the methodology to determine a C-peptide receptor, three human cell lines were determined (101) to respond to treatment with C-peptide with an up regulation of cFos message as determined by RT-PCR. These three were KATOIII (Human Stomach Carcinoma), HEK 293 (human embryonic kidney cells) and TF-1 (an erythroleukemia cell line). The results of tests to show responsiveness are provided graphically in FIGS. 2, 3, and 4. When these three cell lines were screened for the expression of known orphan GPCRs (103), 24 of the approximately 125 orphan GPCRs were expressed by all three cell types as indicated by the table of FIG. 5. Using bioinformatics, the pool of FIG. 5 can be narrowed (105) by eliminating any candidates already matched to other ligands or that had significant homology to GPCRs that bind to non-peptide targets (15 in this case). This is also shown in FIG. 5 with the items that are eliminated darkened. One GPCR (GPR107) could be eliminated as it was recently determined that this was the cognate receptor for neurostatin. This also allowed it to be used as a convenient control as evidenced later herein.

KATOIII cells = assay: C-peptide-induced cFos mRNA expression (RT-PCR) in KATOIII cells; type: cell-based, human
Protocol: as §1, with “This is also shown in FIG. 5 with the items that are eliminated darkened.” left out, “This also allowed it to be used as a convenient control as evidenced later herein.” left out
To evaluate whether anti-GPR146ex-induced enhancement of receptor capping and co-localization corresponded with an increase in C-peptide-induced cFos expression, KATOIII cells were treated with either vehicle (control media), 1 nM C-peptide, anti-GPR146ex (1:500), or anti-GPR146ex and 1 nM C-peptide for one hour at 37 degrees Celsius. […] Changes in cFos mRNA expression were evaluated using real time PCR (RT-PCR).

TF-1 cells = assay: C-peptide-induced cFos mRNA expression (RT-PCR) in TF-1 cells; type: cell-based, human; details: treatment with C-peptide (FIG. 4)
Protocol: as §1

GPR146 = molecular target: T1, GPR146 (Homo sapiens, UniProt Q96CH1); assay: cFos response to C-peptide in siRNA-transfected KATOIII cells; type: cell-based; details: 1 nmole C-peptide
T1 construct: endogenous in cells; host or cells: KATOIII (human stomach carcinoma)
T1 sequence (Q96CH1 whole entry): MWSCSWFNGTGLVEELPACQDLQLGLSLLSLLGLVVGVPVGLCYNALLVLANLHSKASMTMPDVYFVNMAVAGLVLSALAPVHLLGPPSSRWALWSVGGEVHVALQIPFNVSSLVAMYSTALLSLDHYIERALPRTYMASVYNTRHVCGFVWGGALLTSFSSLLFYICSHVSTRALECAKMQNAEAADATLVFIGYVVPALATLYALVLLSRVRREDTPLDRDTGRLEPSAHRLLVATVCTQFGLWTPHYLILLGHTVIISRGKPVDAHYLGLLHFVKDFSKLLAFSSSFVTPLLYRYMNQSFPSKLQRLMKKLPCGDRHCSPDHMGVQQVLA
Protocol: Once the hierarchical candidates were identified and ranked, KATOIII cells were then transfected with siRNA (Integrated DNA technologies) (111) directed against either GPR107 (control), GPR146 (most likely candidate not yet tested) or eGFP (green fluorescent protein-control) using […] (Invitrogen). Five hours later, the media was changed to serum free control media (ATCC) and the serum was starved overnight. Twenty-four (24) hours after transfection with siRNA, cells were treated with 1 nmole C-peptide (Phoenix Pharmaceuticals) for 1 hour, then lysed and RNA were isolated using an RNeasy Kit (Qiagen). RNA was used as a template from the production of cDNA, and changes in cFos expression were determined using RT-PCR (BioRad 2x iQ SyberGreen Master Mix, using a BioRad CFX real time system). […] As this produced the desired negative response (113), GPR146 was the target GPCR (115). The receptiveness of GPR146 to C-peptide has since been verified by additional conventional tests.

For C-peptide, the “cFos mRNA expression” value (HEK293 cells) was “increase in cFos mRNA expression”, the “cFos mRNA expression, material alone” value (KATOIII cells; one hour at 37 degrees Celsius, 1 nM C-peptide or anti-GPR146ex 1:500 alone (FIG. 7)) was “increased cFos” and the “cFos mRNA expression” value (KATOIII cells; treatment with C-peptide (FIG. 2)) was “increase in cFos mRNA expression”. For the same substance, the “cFos mRNA expression” value (TF-1 cells) was “increase in cFos mRNA expression”, the cFos expression (GPR146; KATOIII cells transfected with Vehicle, GPR107 siRNA or eGFP siRNA (controls), 1 hour) was “increase in cFos” and the cFos expression (GPR146; KATOIII cells with GPR146 compromised by siRNA, 1 hour (FIG. 6)) was “failed to respond”.
